Experiments:
JNK = conditions: read-out: KD (μM) JNK; docking motif peptide binding to JNK; cited from earlier work
p38 = conditions: read-out: KD (μM) p38; docking motif peptide binding to p38; cited from earlier work
ERK = conditions: read-out: KD (μM) ERK; docking motif peptide binding to ERK; cited from earlier work
JNK1 = JNK1 (Homo sapiens, UniProt P45983); assay: Recombinant kinase assay, kinetic parameters of sensor phosphorylation; type: biochemical
JNK2 = JNK2 (Homo sapiens, UniProt P45984); assay: as above; type: biochemical
JNK3 = JNK3 (Homo sapiens, UniProt P53779); assay: as above; type: biochemical
Chain of JNK3 (P53779 whole entry): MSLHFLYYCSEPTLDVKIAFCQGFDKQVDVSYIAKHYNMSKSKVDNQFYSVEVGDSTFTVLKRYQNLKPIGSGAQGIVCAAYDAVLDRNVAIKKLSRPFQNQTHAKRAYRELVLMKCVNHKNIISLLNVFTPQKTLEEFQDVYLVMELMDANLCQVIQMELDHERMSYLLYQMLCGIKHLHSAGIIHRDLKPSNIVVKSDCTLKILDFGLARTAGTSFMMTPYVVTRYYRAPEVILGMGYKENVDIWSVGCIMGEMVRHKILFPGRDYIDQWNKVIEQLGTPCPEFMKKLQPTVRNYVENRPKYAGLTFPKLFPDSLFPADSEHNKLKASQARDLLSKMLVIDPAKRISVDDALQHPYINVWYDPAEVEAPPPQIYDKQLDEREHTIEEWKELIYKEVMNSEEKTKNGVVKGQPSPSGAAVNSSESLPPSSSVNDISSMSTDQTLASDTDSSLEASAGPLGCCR

off target kinases = assay: Kinase panel selectivity screen, JNK sensor, off target kinases; type: biochemical; conditions: 15 nM kinase, sensor at 2 × KM (3 μM), other MAP and non-MAP kinases
p38α [1] = biological target: T1, p38α (Homo sapiens, UniProt Q16539); assay: Recombinant kinase assay, kinetic parameters of sensor phosphorylation; type: biochemical
T1 sequence (Q16539 whole entry): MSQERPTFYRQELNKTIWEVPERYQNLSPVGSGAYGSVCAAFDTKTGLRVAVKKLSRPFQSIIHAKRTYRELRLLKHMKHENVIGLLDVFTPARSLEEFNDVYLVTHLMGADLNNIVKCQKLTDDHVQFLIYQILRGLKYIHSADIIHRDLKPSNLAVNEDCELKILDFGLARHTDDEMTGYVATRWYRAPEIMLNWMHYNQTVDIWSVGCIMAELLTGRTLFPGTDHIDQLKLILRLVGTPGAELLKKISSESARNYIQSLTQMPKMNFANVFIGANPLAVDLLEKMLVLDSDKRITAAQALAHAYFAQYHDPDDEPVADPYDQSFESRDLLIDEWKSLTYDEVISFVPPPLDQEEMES

p38β [2] = biological target: T2, p38β (Homo sapiens, UniProt Q15759); assay: as above; type: biochemical
T2 sequence (Q15759 whole entry): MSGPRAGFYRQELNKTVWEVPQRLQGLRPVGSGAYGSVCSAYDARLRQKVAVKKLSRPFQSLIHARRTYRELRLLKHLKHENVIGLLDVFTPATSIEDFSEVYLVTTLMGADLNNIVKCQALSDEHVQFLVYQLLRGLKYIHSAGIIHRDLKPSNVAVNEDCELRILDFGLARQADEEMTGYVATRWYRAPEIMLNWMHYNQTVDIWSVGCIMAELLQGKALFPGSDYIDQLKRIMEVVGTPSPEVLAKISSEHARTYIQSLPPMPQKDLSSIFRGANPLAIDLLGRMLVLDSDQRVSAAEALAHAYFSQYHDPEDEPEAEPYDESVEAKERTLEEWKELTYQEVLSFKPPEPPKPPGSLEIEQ

ERK1 = ERK1 (Homo sapiens, UniProt P27361); assay: as above; type: biochemical
Chain of ERK1 (P27361 whole entry): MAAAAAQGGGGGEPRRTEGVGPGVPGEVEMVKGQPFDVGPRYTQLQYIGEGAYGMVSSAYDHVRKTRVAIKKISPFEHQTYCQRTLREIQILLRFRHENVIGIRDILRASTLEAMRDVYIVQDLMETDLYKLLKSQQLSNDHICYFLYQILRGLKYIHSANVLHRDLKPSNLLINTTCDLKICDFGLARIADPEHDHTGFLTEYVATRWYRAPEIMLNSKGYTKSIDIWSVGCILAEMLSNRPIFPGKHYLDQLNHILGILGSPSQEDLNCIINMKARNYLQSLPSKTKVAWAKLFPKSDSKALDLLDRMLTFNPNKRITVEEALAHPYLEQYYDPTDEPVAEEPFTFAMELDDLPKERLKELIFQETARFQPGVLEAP

ERK2 = ERK2 (Homo sapiens, UniProt P28482); assay: as above; type: biochemical
Chain of ERK2 (P28482 whole entry): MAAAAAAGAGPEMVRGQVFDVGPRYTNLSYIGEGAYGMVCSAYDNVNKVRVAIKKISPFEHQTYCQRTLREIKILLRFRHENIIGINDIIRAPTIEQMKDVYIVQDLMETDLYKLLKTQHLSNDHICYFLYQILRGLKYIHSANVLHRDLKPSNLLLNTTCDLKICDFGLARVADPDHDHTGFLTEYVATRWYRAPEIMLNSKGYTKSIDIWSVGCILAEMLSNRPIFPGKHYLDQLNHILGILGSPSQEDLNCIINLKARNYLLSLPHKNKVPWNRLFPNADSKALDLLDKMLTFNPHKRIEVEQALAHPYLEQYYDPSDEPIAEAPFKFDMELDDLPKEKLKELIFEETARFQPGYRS

p38α [3] = biological target: T1, p38α; assay: Kinase panel selectivity screen, ERK sensor crosstalk with p38α; type: biochemical; conditions: 15 nM kinase, sensor at 2 × KM (2.5 μM)
p38β [4] = biological target: T2, p38β; assay: Kinase panel selectivity screen, ERK sensor crosstalk with p38β; type: biochemical; conditions: 15 nM kinase, sensor at 2 × KM (2.5 μM)
[5] = recombinant JNK1, 1 mM ATP, pH 7.4, 30 °C, Sox fluorescence
[6] = recombinant JNK2, 1 mM ATP, pH 7.4, 30 °C, Sox fluorescence
[7] = recombinant JNK3, 1 mM ATP, pH 7.4, 30 °C, Sox fluorescence
[8] = 1 mM ATP, pH 7.4, 30 °C, Sox fluorescence
[9] = recombinant ERK1, 1 mM ATP, pH 7.4, 30 °C, Sox fluorescence
[10] = recombinant ERK2, 1 mM ATP, pH 7.4, 30 °C, Sox fluorescence

Chain of JNK1 (P45983 whole entry): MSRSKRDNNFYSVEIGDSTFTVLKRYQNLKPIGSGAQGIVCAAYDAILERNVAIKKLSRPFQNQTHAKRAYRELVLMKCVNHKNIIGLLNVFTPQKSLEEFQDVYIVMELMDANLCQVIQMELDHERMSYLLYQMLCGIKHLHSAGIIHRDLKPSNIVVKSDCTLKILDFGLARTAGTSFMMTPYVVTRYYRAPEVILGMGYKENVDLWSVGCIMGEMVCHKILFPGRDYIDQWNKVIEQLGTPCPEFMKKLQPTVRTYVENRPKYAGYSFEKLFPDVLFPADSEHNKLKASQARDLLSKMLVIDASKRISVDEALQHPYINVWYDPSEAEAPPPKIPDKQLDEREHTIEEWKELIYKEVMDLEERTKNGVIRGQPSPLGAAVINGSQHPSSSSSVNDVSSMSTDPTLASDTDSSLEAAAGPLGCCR

Substance: ERPSRDHLYLPLEP [NFAT4]
- Kd (JNK): 7.1 µM
- Kd (p38): > 100 µM
- Kd (ERK): > 100 µM

Substance: ERPSRDHLYLPLEP-PEG2-SANLLSP-Csox-PA [JNK1/2/3]
- catalytic efficiency (min^–1 μM^–1) (JNK1; recombinant JNK1): 5.4 min^–1 μM^–1
- Vmax (μmol min^–1 mg^–1) (JNK1; [5]): 0.38 ± 0.05 μmol min^–1 mg^–1
- kcat (min^–1) (JNK1; [5]): 17.9 ± 2.2 min^–1
- catalytic efficiency (min^–1 μM^–1) (JNK2; recombinant JNK2): 19.2 min^–1 μM^–1
- Vmax (μmol min^–1 mg^–1) (JNK2; [6]): 0.37 ± 0.02 μmol min^–1 mg^–1
- kcat (min^–1) (JNK2; [6]): 18.2 ± 1.3 min^–1
- catalytic efficiency (min^–1 μM^–1) (JNK3; recombinant JNK3): 9.4 min^–1 μM^–1
- Vmax (μmol min^–1 mg^–1) (JNK3; [7]): 0.35 ± 0.07 μmol min^–1 mg^–1
- kcat (min^–1) (JNK3; [7]): 26.6 ± 5.6 min^–1
- activity observed for any of the off target kinases (percentage of the target kinase) (off target kinases): ≤ 12.5%

Substance: GKKRRKLLLPNSADEIKKIKI-PEG2-Triazole-PEG2-QP-Csox-ASPVV [p38α/β]
- catalytic efficiency (min^–1 μM^–1) (p38α [1]): 298.7 min^–1 μM^–1
- Vmax (μmol min^–1 mg^–1) (p38α [1]; [8]): 1.37 ± 0.08 μmol min^–1 mg^–1
- kcat (min^–1) (p38α [1]; [8]): 92.6 ± 5.4 min^–1
- catalytic efficiency (min^–1 μM^–1) (p38β [2]): 282.9 min^–1 μM^–1
- Vmax (μmol min^–1 mg^–1) (p38β [2]; [8]): 0.84 ± 0.13 μmol min^–1 mg^–1
- kcat (min^–1) (p38β [2]; [8]): 39.6 ± 6.3 min^–1

Substance: GLKRVRRQALISSEIPKLQP-PEG2-Triazole-PEG2-VP-Csox-LTPGGRR [ERK1/2]
- catalytic efficiency (min^–1 μM^–1) (ERK1; recombinant ERK1): 26.2 min^–1 μM^–1
- Vmax (μmol min^–1 mg^–1) (ERK1; [9]): 0.42 ± 0.03 μmol min^–1 mg^–1
- kcat (min^–1) (ERK1; [9]): 29.9 ± 2.0 min^–1
- catalytic efficiency (min^–1 μM^–1) (ERK2; recombinant ERK2): 54.6 min^–1 μM^–1
- Vmax (μmol min^–1 mg^–1) (ERK2; [10]): 0.90 ± 0.01 μmol min^–1 mg^–1
- kcat (min^–1) (ERK2; [10]): 62.8 ± 0.7 min^–1
- crosstalk with p38α (percentage of the target kinase) (p38α [3]): 10%
- crosstalk with p38β (percentage of the target kinase) (p38β [4]): 17%

Substance: IKIKKIEDASNPLLLKRRKK [MK2]
- Kd (JNK): > 100 µM
- Kd (p38): 0.05 µM
- Kd (ERK): 19.5 µM

Substance: PQLKPIESSILAQRRVRKL [RSK1]
- Kd (JNK): > 100 µM

Source: article PMC4165445 (Biochemistry, 2014)
